This note sets out measurements from PubChem BioAssay AID256 (DTP/NCI, 2004).

For this experiment, the system named is CD2F1 mice, L1210 leukemia ip, survival T/C. In words: NCI In Vivo Anticancer Drug Screen. Data for tumor model L1210 Leukemia (intraperitoneal) in CD2F1 (CDF1) mice. The note with it: higher = longer survival. The essentials: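 Transplantable tumor in mice; compound-treated vs vehicle-treated groups. Read-out = treated/control ratio of the measured endpoint.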

[1] abbreviates: endpoint: mean survival time, dose: 100.0 mg/kg/injection, schedule: Q04DX002 (ip), vehicle: saline with Tween-80.
Where [2] appears, read: endpoint: mean survival time, dose: 200.0 mg/kg/injection, schedule: Q04DX002 (ip), vehicle: saline with Tween-80.
[3] abbreviates: endpoint: mean survival time, dose: 400.0 mg/kg/injection, schedule: Q04DX002 (ip), vehicle: saline with Tween-80.
[4] abbreviates: endpoint: mean survival time, dose: 25.0 mg/kg/injection, schedule: Q01DX001 (ip), vehicle: other.
The mark [5] stands for this setting: endpoint: mean survival time, dose: 50.0 mg/kg/injection, schedule: Q01DX001 (ip), vehicle: other.
Where [6] appears, read: endpoint: mean survival time, dose: 100.0 mg/kg/injection, schedule: Q01DX001 (ip), vehicle: other.
Where [7] appears, read: endpoint: mean survival time, dose: 50.0 mg/kg/injection, schedule: Q01DX009 (ip), vehicle: saline with Tween-80.
Setting [8] is: endpoint: mean survival time, dose: 100.0 mg/kg/injection, schedule: Q01DX009 (ip), vehicle: saline with Tween-80.
Where [9] appears, read: endpoint: mean survival time, dose: 100.0 mg/kg/injection, schedule: Q04DX003 (ip), vehicle: saline with Tween-80.
Setting [10] is: endpoint: mean survival time, dose: 200.0 mg/kg/injection, schedule: Q04DX003 (ip), vehicle: saline with Tween-80.
The mark [11] stands for this setting: endpoint: mean survival time, dose: 200.0 mg/kg/injection, schedule: Q01DX009 (ip), vehicle: saline with Tween-80.

Where “and” joins values, the source holds several entries; their conditions need not be identical. Equal values may be shown once. Toxic doses and inconclusive results are not listed.

As to `CN(C)C(=O)Nc1cccc2ccccc12`, the T/C by setting is: under setting [1], 94 % of control; under setting [2], 105 % of control; under setting [3], 90 % of control.

In the case of `O=NN(CCCl)C(=O)Nc1ccccn1`, the T/C is, setting by setting: (endpoint: mean survival time, dose: 12.5 mg/kg/injection, schedule: Q01DX001 (ip), vehicle: other) 101 % of control; under setting [4], 94 % of control; under setting [5], 101 % of control; under setting [6], 96 % of control.

For `CC(=O)OC1(C)CC(C)C(=O)C(C(O)CC2CC(=O)NC(=O)C2)C1` (stereo not given), the T/C is 103 % of control (endpoint: mean survival time, dose: 0.03 mg/kg/injection, schedule: Q01DX009 (ip), vehicle: saline); 94 % of control (endpoint: mean survival time, dose: 0.04 mg/kg/injection, schedule: Q01DX009 (ip), vehicle: saline); 105 % of control and 107 % of control (endpoint: mean survival time, dose: 0.06 mg/kg/injection, schedule: Q01DX009 (ip), vehicle: saline); 114 % of control (endpoint: mean survival time, dose: 0.13 mg/kg/injection, schedule: Q01DX009 (ip), vehicle: saline).

For `CCCC(C)C/C(C)=C/C(C)(C)C(CC(=O)N1CCOCC1)C(=O)O` (stereo not given), the T/C is, setting by setting: under setting [7], 95 % of control; under setting [8], 93 % of control; under setting [9], 100 % of control; under setting [10], 98 % of control.

As to `CC1=C2CCCCC2(C)CCC1=O` (stereo not given), the T/C under setting [1] is 120 % of control, the T/C under setting [2] is 108 % of control and the T/C under setting [3] is 100 % of control.

For the compound `O=C(NC(CO)C(O)c1ccc([N+](=O)[O-])cc1)C(Cl)Cl` (stereo not given), the T/C is, setting by setting: under setting [8], 96 % of control; under setting [11], 104 % of control; (endpoint: mean survival time, dose: 400.0 mg/kg/injection, schedule: Q01DX009 (ip), vehicle: saline with Tween-80) 110 % of control.

For `CC(C)(C)c1cc(C(C)(C)C)nc([N+](C)(C)C)c1`, the T/C (endpoint: mean survival time, dose: 12.5 mg/kg/injection, schedule: Q04DX002 (ip), vehicle: saline with Tween-80) was 108 % of control; the T/C (endpoint: mean survival time, dose: 25.0 mg/kg/injection, schedule: Q04DX002 (ip), vehicle: saline with Tween-80) was 101 % of control; the T/C (endpoint: mean survival time, dose: 50.0 mg/kg/injection, schedule: Q04DX002 (ip), vehicle: saline with Tween-80) was 101 % of control.

With `NC(CCl)=NCC12CC3CC(CC(C3)C1)C2`, the T/C by setting is: (endpoint: median survival time, dose: 3.0 mg/kg/injection, schedule: Q01DX009 (ip), vehicle: Klucel (hydroxypropylcellulose) (HPC)) 104 % of control; (endpoint: median survival time, dose: 6.0 mg/kg/injection, schedule: Q01DX009 (ip), vehicle: Klucel (hydroxypropylcellulose) (HPC)) 107 % of control; (endpoint: median survival time, dose: 12.0 mg/kg/injection, schedule: Q01DX009 (ip), vehicle: Klucel (hydroxypropylcellulose) (HPC)) 108 % of control; (endpoint: median survival time, dose: 24.0 mg/kg/injection, schedule: Q01DX009 (ip), vehicle: Klucel (hydroxypropylcellulose) (HPC)) 110 % of control.

Consider `CC(=O)c1ccc(Cl)cc1Cl`, for which the T/C reads like this: under setting [4], 104 % of control; under setting [5], 102 % of control; under setting [6], 95 % of control.

Take `CC(CO)CCC(=O)C(C)C1CC2(C)CCC3C(CCC4CC(O)CCC43C)C2C12SCCS2` (stereo not given): the T/C reads like this: under setting [9], 98 % of control; under setting [10], 102 % of control; (endpoint: mean survival time, dose: 400.0 mg/kg/injection, schedule: Q04DX003 (ip), vehicle: saline with Tween-80) 98 % of control.

Turning to `CCCCCCCCCCCCOP(OCCCCCCCCCCCC)OCCCCCCCCCCCC`, the T/C runs as follows: (endpoint: mean survival time, dose: 100.0 mg/kg/injection, schedule: Q04DX003 (ip), vehicle: alcohol) 102 % of control; (endpoint: mean survival time, dose: 200.0 mg/kg/injection, schedule: Q04DX003 (ip), vehicle: alcohol) 96 % of control; (endpoint: mean survival time, dose: 400.0 mg/kg/injection, schedule: Q04DX003 (ip), vehicle: alcohol) 98 % of control.

For the compound `N#CCN1CCc2ccccc2C1`, the T/C is, setting by setting: (endpoint: mean survival time, dose: 100.0 mg/kg/injection, schedule: Q04DX003 (ip), vehicle: Klucel (hydroxypropylcellulose) (HPC)) 94 % of control; (endpoint: mean survival time, dose: 200.0 mg/kg/injection, schedule: Q04DX003 (ip), vehicle: Klucel (hydroxypropylcellulose) (HPC)) 94 % of control.

With `CC(=O)OCC1OC(n2cnc3c(=S)nc(N)[nH]c32)CC1OC(C)=O` (stereo not given), the T/C (endpoint: mean survival time, dose: 0.63 mg/kg/injection, schedule: Q01DX005 (ip), vehicle: saline with Tween-80) is 101 % of control; the T/C (endpoint: mean survival time, dose: 1.25 mg/kg/injection, schedule: Q01DX005 (ip), vehicle: saline with Tween-80) is 117 % of control; the T/C (endpoint: mean survival time, dose: 20.0 mg/kg/injection, schedule: Q01DX005 (ip), vehicle: saline with Tween-80) is 156 % of control.

With `O.O=S(=O)(O)O.[NH-]C1CCCC1[NH-].[Pt+2]` (stereo not given), the T/C is 116 % of control and 120 % of control (endpoint: mean survival time, dose: 0.5 mg/kg/injection, schedule: Q01DX009 (ip), vehicle: dextrose); 102 % of control and 106 % of control (endpoint: mean survival time, dose: 0.5 mg/kg/injection, schedule: Q04DX003 (ip), vehicle: dextrose); 100 % of control and 104 % of control (endpoint: mean survival time, dose: 1.0 mg/kg/injection, schedule: Q01DX001 (ip), vehicle: dextrose); 116 % of control and 112 % of control (endpoint: mean survival time, dose: 1.0 mg/kg/injection, schedule: Q04DX003 (ip), vehicle: dextrose); 160 % of control (endpoint: mean survival time, dose: 2.0 mg/kg/injection, schedule: Q01DX009 (ip), vehicle: dextrose); 119 % of control (endpoint: mean survival time, dose: 2.0 mg/kg/injection, schedule: Q04DX003 (ip), vehicle: dextrose). The T/C reads like this: (endpoint: mean survival time, dose: 4.0 mg/kg/injection, schedule: Q01DX009 (ip), vehicle: dextrose) 108 % of control; (endpoint: mean survival time, dose: 4.0 mg/kg/injection, schedule: Q04DX003 (ip), vehicle: other) 165 % of control; (endpoint: mean survival time, dose: 6.0 mg/kg/injection, schedule: Q01DX001 (ip), vehicle: dextrose) 151 % of control; (endpoint: mean survival time, dose: 8.0 mg/kg/injection, schedule: Q04DX003 (ip), vehicle: dextrose) 160 % of control and 188 % of control; (endpoint: mean survival time, dose: 10.0 mg/kg/injection, schedule: Q01DX001 (ip), vehicle: dextrose) 160 % of control; (endpoint: mean survival time, dose: 16.0 mg/kg/injection, schedule: Q04DX003 (ip), vehicle: dextrose) 102 % of control.

In the case of `CCOC(=O)NC(C)(C)CN(C(=O)OCC)C(C)(C)CO`, the T/C reads like this: (endpoint: mean survival time, dose: 50.0 mg/kg/injection, schedule: Q01DX009 (ip), vehicle: saline) 102 % of control; (endpoint: mean survival time, dose: 100.0 mg/kg/injection, schedule: Q01DX009 (ip), vehicle: saline) 98 % of control.

Take `CCCCCCSC(=O)Nc1ccc(C)c(NC(=O)SCCCCCC)c1`: the T/C under setting [7] was 95 % of control, the T/C under setting [8] was 93 % of control and the T/C under setting [11] is 93 % of control.

Regarding `O=C(NC(CSC(c1ccc(Cl)cc1)c1ccc(Cl)cc1)C(=O)O)OCc1ccccc1` (stereo not given), the T/C (endpoint: mean survival time, dose: 75.0 mg/kg/injection, schedule: Q01DX001 (ip), vehicle: saline) is 91 % of control and the T/C (endpoint: mean survival time, dose: 300.0 mg/kg/injection, schedule: Q01DX001 (ip), vehicle: saline) was 97 % of control.

As for `CC1(C)N=C(N)N=C(N)N1c1ccc(CCc2ccccc2)cc1`, the T/C is, setting by setting: (endpoint: mean survival time, dose: 12.5 mg/kg/injection, schedule: Q01DX009 (ip), vehicle: saline with Tween-80) 95 % of control; (endpoint: mean survival time, dose: 25.0 mg/kg/injection, schedule: Q01DX009 (ip), vehicle: saline with Tween-80) 87 % of control.

With `O=C1C=CC(=O)N1c1ccc(Cl)cc1`, the T/C (endpoint: mean survival time, dose: 6.25 mg/kg/injection, schedule: Q01DX001 (ip), vehicle: Klucel (hydroxypropylcellulose) (HPC)) was 100 % of control; the T/C (endpoint: mean survival time, dose: 6.25 mg/kg/injection, schedule: Q01DX009 (ip), vehicle: Klucel (hydroxypropylcellulose) (HPC)) was 110 % of control; the T/C (endpoint: mean survival time, dose: 6.25 mg/kg/injection, schedule: Q04DX003 (ip), vehicle: Klucel (hydroxypropylcellulose) (HPC)) is 107 % of control; the T/C (endpoint: mean survival time, dose: 12.5 mg/kg/injection, schedule: Q01DX001 (ip), vehicle: Klucel (hydroxypropylcellulose) (HPC)) is 103 % of control; the T/C (endpoint: mean survival time, dose: 12.5 mg/kg/injection, schedule: Q01DX009 (ip), vehicle: Klucel (hydroxypropylcellulose) (HPC)) was 101 % of control; the T/C (endpoint: mean survival time, dose: 12.5 mg/kg/injection, schedule: Q04DX003 (ip), vehicle: Klucel (hydroxypropylcellulose) (HPC)) is 104 % of control. For the setting “endpoint: mean survival time, dose: 25.0 mg/kg/injection, schedule: Q01DX009 (ip), vehicle: Klucel (hydroxypropylcellulose) (HPC)”, the T/C is 96 % of control.

For `Nc1ccc(-c2nc(=S)c3cn[nH]c3[nH]2)cc1`, the T/C is 92 % of control (endpoint: mean survival time, dose: 12.5 mg/kg/injection, schedule: Q01DX005 (ip), vehicle: other); 94 % of control (endpoint: mean survival time, dose: 25.0 mg/kg/injection, schedule: Q01DX005 (ip), vehicle: other); 91 % of control (endpoint: mean survival time, dose: 50.0 mg/kg/injection, schedule: Q01DX005 (ip), vehicle: other); 91 % of control (endpoint: mean survival time, dose: 100.0 mg/kg/injection, schedule: Q01DX005 (ip), vehicle: other); 95 % of control (endpoint: mean survival time, dose: 200.0 mg/kg/injection, schedule: Q01DX005 (ip), vehicle: other).
